Where “and” joins values, the source holds several entries; their conditions need not be identical. Equal values may be shown once. HELM strings list units from the 5' end as sugar, base in round brackets, then linkage (d deoxyribose, r ribose, m 2'-O-methyl, p phosphodiester). Strings are as the collection lists them; they lack the last nucleoside at the 3' end of the tested compound. [moe] = 2'-O-(2-methoxyethyl) (MOE); [sp] = phosphorothioate linkage; [m5C] = 5-methylcytosine
Target: SMN2
Assay: mouse, dose not given
Conditions: ASO

| Substance | 3 h FOB score |
| --- | --- |
| RNA1{[moe](T)[sp].[moe](T)[sp].[moe]([m5C])[sp].[moe](A)[sp].[moe]([m5C])[sp].[moe](T)[sp].[moe](T)[sp].[moe](T)[sp].[moe]([m5C])p.[moe](A)[sp].[moe](T)[sp].[moe](A)[sp].[moe](A)[sp].[moe](T)[sp].[moe](G)[sp].[moe]([m5C])[sp].[moe](T)[sp].[moe](G)}$$$$ (last 3' nucleoside missing) | 3.75 score 0-7 |
| RNA1{[moe](T)[sp].[moe](T)[sp].[moe]([m5C])[sp].[moe](A)[sp].[moe]([m5C])[sp].[moe](T)[sp].[moe](T)[sp].[moe](T)[sp].[moe]([m5C])p.[moe](A)[sp].[moe](T)[sp].[moe](A)[sp].[moe](A)[sp].[moe](T)[sp].[moe](G)[sp].[moe]([m5C])p.[moe](T)[sp].[moe](G)}$$$$ (last 3' nucleoside missing) | 2 score 0-7 |
| RNA1{[moe](T)[sp].[moe](T)p.[moe]([m5C])[sp].[moe](A)[sp].[moe]([m5C])[sp].[moe](T)[sp].[moe](T)[sp].[moe](T)[sp].[moe]([m5C])[sp].[moe](A)[sp].[moe](T)[sp].[moe](A)[sp].[moe](A)[sp].[moe](T)[sp].[moe](G)[sp].[moe]([m5C])[sp].[moe](T)[sp].[moe](G)}$$$$ (last 3' nucleoside missing) | 3 score 0-7 |
| RNA1{[moe](T)[sp].[moe](T)p.[moe]([m5C])[sp].[moe](A)[sp].[moe]([m5C])[sp].[moe](T)[sp].[moe](T)[sp].[moe](T)[sp].[moe]([m5C])[sp].[moe](A)[sp].[moe](T)[sp].[moe](A)[sp].[moe](A)[sp].[moe](T)[sp].[moe](G)[sp].[moe]([m5C])p.[moe](T)[sp].[moe](G)}$$$$ (last 3' nucleoside missing) | 1 score 0-7 |
| RNA1{[moe](T)[sp].[moe](T)p.[moe]([m5C])[sp].[moe](A)[sp].[moe]([m5C])[sp].[moe](T)[sp].[moe](T)[sp].[moe](T)[sp].[moe]([m5C])p.[moe](A)[sp].[moe](T)[sp].[moe](A)[sp].[moe](A)[sp].[moe](T)[sp].[moe](G)[sp].[moe]([m5C])[sp].[moe](T)[sp].[moe](G)}$$$$ (last 3' nucleoside missing) | 2.5 score 0-7 |
| RNA1{[moe](T)[sp].[moe](T)p.[moe]([m5C])[sp].[moe](A)p.[moe]([m5C])[sp].[moe](T)[sp].[moe](T)[sp].[moe](T)[sp].[moe]([m5C])[sp].[moe](A)[sp].[moe](T)[sp].[moe](A)[sp].[moe](A)[sp].[moe](T)[sp].[moe](G)[sp].[moe]([m5C])[sp].[moe](T)[sp].[moe](G)}$$$$ (last 3' nucleoside missing) | 2.25 score 0-7 |
| RNA1{[moe](T)[sp].[moe]([m5C])[sp].[moe](A)[sp].[moe]([m5C])[sp].[moe](T)[sp].[moe](T)[sp].[moe](T)[sp].[moe]([m5C])[sp].[moe](A)[sp].[moe](T)[sp].[moe](A)[sp].[moe](A)[sp].[moe](T)[sp].[moe](G)[sp].[moe]([m5C])[sp].[moe](T)[sp].[moe](G)[sp].[moe](G)[sp].[moe]([m5C])}$$$$ (last 3' nucleoside missing) | 0 score 0-7 |
| RNA1{[moe](T)[sp].[moe]([m5C])[sp].[moe](A)[sp].[moe]([m5C])[sp].[moe](T)[sp].[moe](T)[sp].[moe](T)[sp].[moe]([m5C])[sp].[moe](A)[sp].[moe](T)[sp].[moe](A)[sp].[moe](A)[sp].[moe](T)[sp].[moe](G)[sp].[moe]([m5C])[sp].[moe](T)[sp].[moe](G)[sp].[moe](G)p.[moe](A)}$$$$ (last 3' nucleoside missing) | 3.75 score 0-7 and 4 score 0-7 (3×) |
| RNA1{[moe](T)[sp].[moe]([m5C])[sp].[moe](A)[sp].[moe]([m5C])[sp].[moe](T)[sp].[moe](T)[sp].[moe](T)[sp].[moe]([m5C])[sp].[moe](A)[sp].[moe](T)[sp].[moe](A)[sp].[moe](A)[sp].[moe](T)[sp].[moe](G)[sp].[moe]([m5C])[sp].[moe](T)[sp].[moe](G)[sp].[moe](G)p.[moe](T)}$$$$ (last 3' nucleoside missing) | 4 score 0-7 |
| RNA1{[moe](T)[sp].[moe]([m5C])[sp].[moe](A)[sp].[moe]([m5C])[sp].[moe](T)[sp].[moe](T)[sp].[moe](T)[sp].[moe]([m5C])[sp].[moe](A)[sp].[moe](T)[sp].[moe](A)[sp].[moe](A)[sp].[moe](T)[sp].[moe](G)[sp].[moe]([m5C])[sp].[moe](T)[sp].[moe](G)[sp].[moe](G)p.d(A)}$$$$ (last 3' nucleoside missing) | 4 score 0-7 (2×) and 4.25 score 0-7 (2×) and 3.75 score 0-7 (2×) |
| RNA1{[moe](T)[sp].[moe]([m5C])[sp].[moe](A)[sp].[moe]([m5C])[sp].[moe](T)[sp].[moe](T)[sp].[moe](T)[sp].[moe]([m5C])[sp].[moe](A)[sp].[moe](T)[sp].[moe](A)[sp].[moe](A)[sp].[moe](T)[sp].[moe](G)[sp].[moe]([m5C])[sp].[moe](T)[sp].[moe](G)[sp].[moe](G)p.d([m5C])}$$$$ (last 3' nucleoside missing) | 4 score 0-7 (2×) and 3.75 score 0-7 (2×) and 3.5 score 0-7 |
| RNA1{[moe](T)[sp].[moe]([m5C])[sp].[moe](A)[sp].[moe]([m5C])[sp].[moe](T)[sp].[moe](T)[sp].[moe](T)[sp].[moe]([m5C])[sp].[moe](A)[sp].[moe](T)[sp].[moe](A)[sp].[moe](A)[sp].[moe](T)[sp].[moe](G)[sp].[moe]([m5C])p.[moe](T)[sp].[moe](G)[sp].[moe](G)}$$$$ (last 3' nucleoside missing) | 2.25 score 0-7 (2×) and 2.5 score 0-7 and 2 score 0-7 |
| RNA1{[moe](T)[sp].[moe]([m5C])[sp].[moe](A)[sp].[moe]([m5C])[sp].[moe](T)[sp].[moe](T)[sp].[moe](T)[sp].[moe]([m5C])[sp].[moe](A)[sp].[moe](T)[sp].[moe](A)[sp].[moe](A)[sp].[moe](T)[sp].[moe](G)[sp].[moe]([m5C])p.[moe](T)[sp].[moe](G)}$$$$ (last 3' nucleoside missing) | 2.75 score 0-7 |
| RNA1{[moe](T)[sp].[moe]([m5C])[sp].[moe](A)[sp].[moe]([m5C])[sp].[moe](T)[sp].[moe](T)[sp].[moe](T)[sp].[moe]([m5C])[sp].[moe](A)[sp].[moe](T)[sp].[moe](A)[sp].[moe](A)[sp].[moe](T)[sp].[moe](G)p.[moe]([m5C])[sp].[moe](T)[sp].[moe](G)}$$$$ (last 3' nucleoside missing) | 3.75 score 0-7 |
| RNA1{[moe](T)[sp].[moe]([m5C])[sp].[moe](A)[sp].[moe]([m5C])[sp].[moe](T)[sp].[moe](T)[sp].[moe](T)[sp].[moe]([m5C])[sp].[moe](A)[sp].[moe](T)[sp].[moe](A)[sp].[moe](A)[sp].[moe](T)[sp].[moe](G)p.[moe]([m5C])p.[moe](T)[sp].[moe](G)}$$$$ (last 3' nucleoside missing) | 3.5 score 0-7 |
| RNA1{[moe](T)[sp].[moe]([m5C])[sp].[moe](A)[sp].[moe]([m5C])[sp].[moe](T)[sp].[moe](T)[sp].[moe](T)[sp].[moe]([m5C])[sp].[moe](A)[sp].[moe](T)[sp].[moe](A)[sp].[moe](A)[sp].[moe](T)p.[moe](G)[sp].[moe]([m5C])p.[moe](T)[sp].[moe](G)[sp].[moe](G)}$$$$ (last 3' nucleoside missing) | 1 score 0-7 and 2 score 0-7 and 1.25 score 0-7 (2×) |
| RNA1{[moe](T)[sp].[moe]([m5C])[sp].[moe](A)[sp].[moe]([m5C])[sp].[moe](T)[sp].[moe](T)[sp].[moe](T)[sp].[moe]([m5C])[sp].[moe](A)[sp].[moe](T)[sp].[moe](A)[sp].[moe](A)[sp].[moe](T)p.[moe](G)[sp].[moe]([m5C])p.[moe](T)[sp].[moe](G)}$$$$ (last 3' nucleoside missing) | 3 score 0-7 |
| RNA1{[moe](T)[sp].[moe]([m5C])[sp].[moe](A)[sp].[moe]([m5C])[sp].[moe](T)[sp].[moe](T)[sp].[moe](T)[sp].[moe]([m5C])[sp].[moe](A)[sp].[moe](T)[sp].[moe](A)[sp].[moe](A)p.[moe](T)[sp].[moe](G)[sp].[moe]([m5C])[sp].[moe](T)[sp].[moe](G)}$$$$ (last 3' nucleoside missing) | 3.5 score 0-7 |
| RNA1{[moe](T)[sp].[moe]([m5C])[sp].[moe](A)[sp].[moe]([m5C])[sp].[moe](T)[sp].[moe](T)[sp].[moe](T)[sp].[moe]([m5C])[sp].[moe](A)[sp].[moe](T)[sp].[moe](A)[sp].[moe](A)p.[moe](T)[sp].[moe](G)p.[moe]([m5C])[sp].[moe](T)[sp].[moe](G)}$$$$ (last 3' nucleoside missing) | 2.5 score 0-7 |
| RNA1{[moe](T)[sp].[moe]([m5C])[sp].[moe](A)[sp].[moe]([m5C])[sp].[moe](T)[sp].[moe](T)[sp].[moe](T)[sp].[moe]([m5C])[sp].[moe](A)[sp].[moe](T)[sp].[moe](A)p.[moe](A)[sp].[moe](T)[sp].[moe](G)p.[moe]([m5C])[sp].[moe](T)[sp].[moe](G)}$$$$ (last 3' nucleoside missing) | 2 score 0-7 |
| RNA1{[moe](T)[sp].[moe]([m5C])[sp].[moe](A)[sp].[moe]([m5C])[sp].[moe](T)[sp].[moe](T)[sp].[moe](T)[sp].[moe]([m5C])[sp].[moe](A)[sp].[moe](T)p.[moe](A)[sp].[moe](A)[sp].[moe](T)[sp].[moe](G)[sp].[moe]([m5C])[sp].[moe](T)[sp].[moe](G)}$$$$ (last 3' nucleoside missing) | 3 score 0-7 |
| RNA1{[moe](T)[sp].[moe]([m5C])[sp].[moe](A)[sp].[moe]([m5C])[sp].[moe](T)[sp].[moe](T)[sp].[moe](T)[sp].[moe]([m5C])[sp].[moe](A)[sp].[moe](T)p.[moe](A)[sp].[moe](A)[sp].[moe](T)[sp].[moe](G)p.[moe]([m5C])[sp].[moe](T)[sp].[moe](G)}$$$$ (last 3' nucleoside missing) | 3.5 score 0-7 |
